# From a melting point compilation (Tetko et al.; mined from patent text by program, amines drawn as free bases though some values may be those of a salt)
# Non-standard residues stand in square brackets, D forms with d. Residues, ends and D or L forms follow the SMILES beside them. *: point of attachment. Tos = Cc1ccc(S(=O)(=O)*)cc1; OBn = c1ccc(CO*)cc1; Sar = CNCC(=O)O
row,melting point,SMILES
1,80 to 82 °C,Cc1ccc(S(=O)(=O)N(C)CC(=O)N[C@@H](Cc2ccccc2)C(=O)OCc2ccccc2)cc1 (Tos-[Sar]-Phe-OBn)
2,69 to 70 °C,COC(=O)c1cc(Cl)c2c(c1Cl)OC(c1ccccc1)(c1ccccc1)O2
3,165 to 167 °C,COc1ccc(CCCCc2ccc(OC)c(OC)c2OC)cc1OC
4,198 to 201 °C,O=c1[nH]cnc2c1ncn2[C@@H]1C[C@H](O)[C@@H](O)[C@H]1O (racemic)
5,131 to 133 °C,C=CS(=O)(=O)NC(=O)Nc1nc(C)cc(C)n1
6,104 to 105 °C,O=C(O)CCCN1CCN2c3ccccc3Cc3ccccc3C2C1 (centres undefined)
7,50 °C,CCc1c([N+](=O)[O-])ccc2cc[nH]c12
8,182 to 183 °C,S=C1Nc2ccccc2Cc2nccn21
9,182 to 183 °C,O=C(O)Cc1ccc(CCNC(=O)c2ccc(Cl)cc2)cc1
10,78 to 79 °C,CCOC(=O)N1CCCc2cc(C(=O)CCCl)ccc21
11,96 to 98 °C,CN(C)C1CCN(Cc2ccc3c(c2)Cc2c(-c4cccs4)n[nH]c2-3)CC1
12,165 to 167 °C,CCc1nc2c(N)nc3cc(OCCNC(C)=O)ccc3c2n1CC1CCOCC1
13,314 to 316 °C,Cc1ccc(-c2nc3c([nH]c(=O)c4ccccc43)s2)cc1
14,123 to 125 °C,CSC(NCCNC(=O)OC(C)(C)C)=C(C#N)C#N
15,172 to 174 °C,Cc1ccc(S(=O)(=O)NC(=O)Nc2nc(-c3ccccc3)c(-c3ccc(=O)n(C(C)C)n3)s2)cc1
16,194 to 195 °C,O=[N+]([O-])c1cc(Br)ccc1Nc1cccc(-n2ccnc2)n1
17,96.6 to 98.1 °C,CCCN(CC(=O)Nc1cnc(C)nc1N(CC)CC)c1ccccc1
18,121 to 123 °C,Cc1ccc(OCc2c(F)cccc2F)c(N)n1
19,120 °C,COC(=O)C(C)(NC1OC(=O)C2C3C=CC(C3)C12)c1ccccc1 (centres undefined)
20,89 to 91 °C,S=C(Cc1ccc2ccccc2c1)N1CCCCC1
21,194 to 195 °C,CCOc1cc(O)nc(N(C)C)n1
22,159 to 160 °C,CCOC(=O)Nc1csc2cc(O)ccc12
23,59 to 61 °C,C=CN1CC/C(=C\C)C1=O
24,200 to 201 °C,COc1cc(OC)c2c(c1)S(=O)(=O)N(COC(=O)c1c(Cl)cccc1Cl)C2=O

row,melting point,SMILES
1,162 to 164 °C,CN1CCC(NCc2ccccc2)(c2ccccc2)C(O)C1 (centres undefined)
2,61 to 62 °C,CCOC(Cc1ccc(OCCN(C)c2nc3ccccc3o2)cc1)c1nc(C)no1 (centres undefined)
3,> 250 °C,NC(=O)N1C(=O)C(C(=O)c2cc(Cl)cs2)c2ncc(Cl)cc21 (centres undefined)
4,107 to 108 °C,CCc1ccn(-c2ccc(S(C)(=O)=O)cc2)c1-c1ccc(F)cc1
5,108 to 110 °C,C=Cc1c(F)c(F)cc(C(=O)O)c1F
6,151 to 152 °C,COc1ccc(NC(=O)Cn2c3c(c4cc(Cl)c(Cl)cc42)CCN(C(=O)OC(C)(C)C)CC3)cc1
7,138 °C,CN(C)C(=S)Oc1ccc(C(=O)c2ccccc2C#N)cc1
8,199 to 200 °C,COc1ccc(-c2cc(=O)cc(N3CCOCC3)s2)cc1
9,152 °C,Cc1cc(-c2cc(F)c(F)cc2-c2ccc(S(C)(=O)=O)cc2)ccc1Cl
10,76 to 80 °C,Cc1cccc(NC(=O)NCC(=O)N(CC(=O)N(CC(=O)OC(C)(C)C)c2ccccc2)c2ccccc2)c1
11,180 to 182 °C,O=C(O)COc1cccc2c1CCc1sc(SCc3ccccc3)nc1-2
12,220 to 222 °C,O=C1N(Cc2ncc(F)cc2F)c2ccccc2C12COc1cc3c(cc12)OCCO3 (centres undefined)
13,91 to 92 °C,CCCC(SCC(N)=O)c1ccc2c(c1)OCO2 (centres undefined)
14,120 °C,COc1ccc(C(=O)c2cc(Br)ccc2N)cc1
15,173 to 174 °C,CC(=O)Oc1ccc(N=c2scc(-c3ccc(Cl)c(S(=O)(=O)N(C)C)c3)n2C)cc1
16,100 to 102 °C,O=C(c1ccccc1)c1cc(CN2CCN(c3ccccc3)CC2)on1
17,126 to 128 °C,CC(=Cc1ccc(F)cc1F)C(=O)O
18,72 to 75 °C,Cc1cc(Cn2cnc3c2CC(C(=O)O)N(C(=O)C(c2ccccc2)c2ccccc2)C3)ccc1N(C)C (centres undefined)
19,211 to 216 °C,CN1CCC(C2(O)c3ccccc3Sc3ccc(S(=O)(=O)C(F)(F)F)cc32)CC1 (centres undefined)
20,138 to 139 °C,Cn1cc(-c2cccc(N3Cc4cc(C(C)(C)C)ccc4C3=O)c2CO)cc(Nc2ccccn2)c1=O
21,221 to 224 °C,O=C(O)C1Cc2c(c(Cl)cc3c(-c4ccccc4)noc23)O1 (centres undefined)
22,200 to 202 °C,CCOC(=O)c1cnc2sc(-c3cccnc3)nn2c1=O
23,161 to 162 °C,COc1cccc(C2(CC(=O)N(C)C)C=CCCC2)c1 (centres undefined)
24,164 to 167 °C,O=C(NCc1ccc(Cl)cc1)c1cn2c3c(cc(CN4CCOCC4)cc3c1=O)OC(CNCc1ccncc1)C2 (centres undefined)

row,melting point,SMILES
1,145 °C,CC(C)[C@H](NC(=O)N(C)Cc1ccccn1)C(=O)O
2,115 to 118 °C,Clc1ccc2nc(N3CCCCC3)nc(N3CCCCC3)c2c1
3,132 to 134 °C,CCOCC(=O)Nc1ccc(Br)c(-n2nc(CC)n(Cc3ccc(-c4ccccc4S(=O)(=O)NC(=O)OC(C)(C)C)cc3F)c2=O)c1
4,177 to 180 °C,CC(NC(Nc1cc(C(F)(F)F)cc(C(F)(F)F)c1)=C(C#N)S(=O)(=O)C(C)C)C(C)(C)C (centres undefined)
5,286 to 290 °C,Cn1c(=O)c(-c2c(Cl)cccc2Cl)cc2cnc(Nc3ccc(CC(=O)O)cc3)nc21
6,213 to 215 °C,O=C(Cc1c(-c2ccccc2)c2cc(CSc3ccccn3)c(Cl)cc2oc1=O)Nc1ccc(Cl)cc1C(F)(F)F
7,114 °C,Cc1c(Cc2ccccc2)c(=O)n(C2CCCC2)c2nc(Nc3ccc(N4CCNCC4)cc3)ncc12
8,145 to 148 °C,O=C(O)C(=O)c1cnsc1
9,188 to 189 °C,CCCOc1ccccc1-c1nc2nc(NCCCS(C)=O)ncc2c(=O)[nH]1 (centres undefined)
10,195 to 197 °C,O=C(Nc1cc2ccccc2oc1=O)c1ccccc1NCc1ccncc1
11,176 to 184 °C,CN1C(=O)N(c2c(Cl)cccc2Cl)Cc2cnc(N)nc21
12,190 to 192 °C,CS(=O)c1ccc(F)c(-c2nc3ncccc3[nH]2)c1 (centres undefined)
13,77 to 78 °C,Nc1ccc(F)c(Br)c1F
14,197 to 202 °C,N#Cc1nn(-c2c(Cl)cc(-c3ccc(C(F)(F)F)cc3)cc2Cl)c(N)c1S(=O)(=O)C(F)(F)F
15,238 to 239 °C,CCCc1nc2c(N)nc3cccnc3c2n1Cc1cc(-c2ccc(F)cc2)no1
16,302 to 304 °C,COc1ccc2[nH]c3cc(-c4cc([N+](=O)[O-])ccc4OC)c4c(c3c2c1)C(=O)NC4=O
17,157 to 162 °C,CN(C)C(=O)NC1CCC(=O)c2ccccc21 (centres undefined)
18,110 to 112 °C,CCCN(Cc1ccc(-c2ccccc2-c2nnnn2C(c2ccccc2)(c2ccccc2)c2ccccc2)cc1)c1nc(C)cnc1C(=O)OCC
19,242 to 243 °C,CS(=O)CCNC(=O)c1cc2cc(S(N)(=O)=O)sc2s1 (centres undefined)
20,102 to 104 °C,CCc1cc(-c2ccc(F)cc2)c(O)cc1OCCCCCC(c1ccc(OCC(=O)O)cc1)c1nnn[nH]1 (centres undefined)
21,178 to 179 °C,CCOC(=O)C1NC(C(=O)O)c2[nH]c3cccc(OCc4cccc(Cl)c4)c3c2C1COC (centres undefined)
22,105 to 107 °C,CN(C)c1ncnc2c1ncn2C1CC(F)C(CO)O1 (centres undefined)
23,134 to 136 °C,CN1N=C2C(=Cc3ccccc3)CN(C(=O)CCCl)CC2C1c1ccccc1 (centres undefined)
24,> 270 °C,COC(=O)c1cc(-c2ccncc2)[nH]c1-c1ccncc1

row,melting point,SMILES
1,64 to 65 °C,Cc1oc(-c2ccccc2)nc1COc1ccc(C(C)CCC2SC(=O)NC2=O)cc1 (centres undefined)
2,> 300 °C,Cn1cc(C2(c3c4n(c5ccccc35)CCCCC4)CC(=O)NC2=O)c2ccccc21 (centres undefined)
3,212 to 214 °C,CC(=O)Nc1ccc(Sc2nc(Nc3cc(C)n[nH]3)cc(-c3ccccc3C)n2)cc1
4,89 to 91 °C,c1ccc(C(OC(c2ccccc2)(c2ccccc2)c2ccccc2)(c2ccccc2)c2ccccc2)cc1
5,188 to 189 °C,C=CCNC1=NN=C(c2ccc(Cl)cc2Cl)CS1
6,130 to 139 °C,COc1ccc(N2CCC(=O)N(c3ccc(F)cc3)CC2)c(-c2ccc(N(C)C)cc2)n1
7,235 °C,O=C1c2cccc3cccc(c23)C(=O)N1CCN1CCC(c2c[nH]c3ccc(F)cc23)CC1
8,196 to 198 °C,O=C(O)c1ccc2c(c1)Sc1ccccc1CC2
9,144 to 147 °C,COc1cc2c(cc1Br)CCOC2c1ccc([N+](=O)[O-])cc1 (centres undefined)
10,38 to 40 °C,COc1ccc(C(=O)CCCCCBr)cc1OC
11,109 to 110 °C,CC(=O)NC[C@H]1CN(c2ccc(C3CCNCC3)c(F)c2)C(=O)O1
12,154 to 155 °C,N#Cc1ccc(-c2cc(C#N)cc(Cn3cncn3)c2)cc1
13,139 to 140 °C,Nc1cccc(C#CCCN2CCC(O)(c3ccc(Cl)cc3)CC2)c1
14,109 to 111 °C,COCOc1cccc2c(=O)[nH]c(CCCCN(C)C)cc12
15,75 to 77 °C,O=[N+]([O-])c1ccc2c(c1)C(Cl)=NC(CF)(CF)O2
16,142 to 144 °C,COc1cc(O)c2c(c1O)CC=CC2
17,232 to 234 °C,Cc1cc2c(N3CCc4ccc(Cl)cc43)ncnc2cn1
18,94 to 95 °C,Cc1c(C)c2c(c(C)c1N)C(c1ccccc1)CO2 (centres undefined)
19,66 to 69 °C,CC(C)(C)C(=O)CC(C(=O)C(C)(C)C)n1cncn1 (centres undefined)
20,120 °C,CC(=O)NCCCCOC1c2ccccc2C(=O)N1c1ccc2ccc(Cl)nc2n1 (centres undefined)
21,84 to 86 °C,C[C@H]1C(=O)NC2CCC(=O)N21 (some centres undefined)
22,92.4 to 93.5 °C,CCOC(=O)CCc1coc2c(O[Si](C)(C)C(C)(C)C)c3ccccc3c(C)c12
23,118 °C,COc1ccc2cc([C@H](C)C(=O)OCCCN3C(=O)OC[C@H]3C(C)(C)S)ccc2c1

row,SMILES,melting point
1,CCC1=Nc2ccccc2CC(c2cccnc2)N1C (centres undefined),72 to 75 °C
2,CC(=Cc1cccc(SC(F)(F)F)c1)[N+](=O)[O-],48 °C
3,C[C@]12CC[C@H](O)CC1=CCC1C2CC[C@@]2(C)C1CC[C@@H]2C1=CC(=O)OC1 (some centres undefined),286 to 287 °C
4,COc1cccc(C#Cc2ncn3c2[C@@H]2CCCN2C(=O)c2c(Cl)cccc2-3)c1,204 to 205 °C
